From ChEMBL document CHEMBL1128913, “Synthesis and in vitro cytotoxicity of cryptophycins and related analogs” (Bioorg Med Chem Lett, 1996)
Values after ≈ are worked out from the molar mass of the structure shown.

What was measured:
Type in all cases: functional, cell-based
KB [1] = assay: Cytotoxic activity against KBV vinblastine resistant KB cells; settings: Homo sapiens
HT-29 = assay: Cytotoxic activity against HT-29 human colon adenocarcinoma cells
KB [2] = assay: Cytotoxic activity against KB human nasopharyngeal carcinoma cells
DA-3 cell line = assay: Cytotoxic activity against DA-3 mouse mammary adenocarcinoma cells
B16-F10 = assay: Cytotoxic activity against B16F10 mouse melanoma cells
KB [3] = assay: Cytotoxic activity against Human nasopharyngeal KB cell line

SMILES	IC50 (KB [1]) [nM]	IC50 (HT-29) [nM]	IC50 (KB [2]) [nM]	IC50 (DA-3 cell line) [nM]	IC50 (B16-F10) [nM]	IC50 (KB [3]) [ng/mL]
COc1ccc(C[C@H]2NC(=O)/C=C/C[C@@H](C(C#Cc3ccccc3)OS(C)(=O)=O)OC(=O)[C@H](CC(C)C)OC(=O)CCNC2=O)cc1 (stereo partly specified)	> 10	> 10	> 10	> 10	> 10	
COc1ccc(C[C@H]2NC(=O)/C=C/C[C@@H](C(O)CCc3ccccc3)OC(=O)[C@H](CC(C)C)OC(=O)[C@H](C)CNC2=O)cc1 (stereo partly specified)	> 10	> 10	> 10	> 10	> 10	
COc1ccc(C[C@H]2NC(=O)/C=C/C[C@@H](C(=O)C#Cc3ccccc3)OC(=O)[C@H](CC(C)C)OC(=O)[C@@H](C)CNC2=O)cc1	> 10	> 10	> 10	> 10	> 10	
COc1ccc(C[C@H]2NC(=O)/C=C/C[C@@H](C(O)C#Cc3ccccc3)OC(=O)[C@H](CC(C)C)OC(=O)[C@@H](C)CNC2=O)cc1 (stereo partly specified)	> 10	> 10	> 10	> 10	> 10	
COc1ccc(C[C@H]2NC(=O)/C=C/C[C@@H](C(O)C#Cc3ccccc3)OC(=O)[C@H](CC(C)C)OC(=O)CCNC2=O)cc1 (stereo partly specified)	> 10	> 10	> 10	> 10	> 10	
COc1ccc(C[C@H]2NC(=O)/C=C/C[C@@H](C(Br)C#Cc3ccccc3)OC(=O)[C@H](CC(C)C)OC(=O)[C@@H](C)CNC2=O)cc1 (stereo partly specified)	> 10	> 10	> 10	> 10	> 10	
COc1ccc(C[C@H]2NC(=O)/C=C/C[C@@H]([C@@](C)(O)/C=C\c3ccccc3)OC(=O)[C@H](CC(C)C)OC(=O)CCNC2=O)cc1	> 10	> 10	> 10	> 10	> 10	
COc1ccc(C[C@H]2NC(=O)/C=C/C[C@@H](CCCc3ccccc3)OC(=O)[C@H](CC(C)C)OC(=O)CCNC2=O)cc1Cl	> 10	> 10	> 10	> 10	> 10	
COc1ccc(C[C@H]2NC(=O)/C=C/C[C@@H]([C@@H](C)/C=C/c3ccccc3)OC(=O)[C@H](CC(C)C)OC(=O)[C@H](C)CNC2=O)cc1	> 10	> 10	> 10	> 10	> 10	
COc1ccc(C[C@H]2NC(=O)/C=C/C[C@@H](C(Br)C#Cc3ccccc3)OC(=O)[C@H](CC(C)C)OC(=O)CCNC2=O)cc1 (stereo partly specified)	> 10	> 10	> 10	> 10	> 10	
COc1ccc(C[C@H]2NC(=O)/C=C/C[C@@H](CC#Cc3ccccc3)OC(=O)[C@H](CC(C)C)OC(=O)[C@@H](C)CNC2=O)cc1	> 10	> 10	> 10	> 10	> 10	
COc1ccc(C[C@H]2NC(=O)/C=C/C[C@@H](C(O)/C=C/c3ccccc3)OC(=O)[C@H](CC(C)C)OC(=O)[C@H](C)CNC2=O)cc1 (stereo partly specified)	> 10	> 10	> 10	> 10	> 10	
COc1ccc(C[C@H]2NC(=O)/C=C/C[C@@H]([C@H](C)[C@H]3O[C@@H]3c3ccccc3)OC(=O)[C@H](CC(C)C)OC(=O)[C@H](C)CNC2=O)cc1	0.8	0.3	0.3	0.2	0.3	
COc1ccc(C[C@H]2NC(=O)/C=C/C[C@@H]([C@@](C)(O)C#Cc3ccccc3)OC(=O)[C@H](CC(C)C)OC(=O)CCNC2=O)cc1	> 10	> 10	> 10	> 10	> 10	
COc1ccc(C[C@H]2NC(=O)/C=C/C[C@@H](C/C=C/c3ccccc3)OC(=O)[C@H](CC(C)C)OC(=O)[C@H](C)CNC2=O)cc1Cl	> 10	> 10	> 10	> 10	> 10	
COc1ccc(C[C@H]2NC(=O)/C=C/C[C@@H]([C@H](C)/C=C/c3ccccc3)OC(=O)[C@H](CC(C)C)OC(=O)[C@H](C)CNC2=O)cc1	> 10	> 10	> 10	> 10	> 10	
COc1ccc(C[C@H]2NC(=O)/C=C/C[C@@H](CCCc3ccccc3)OC(=O)[C@H](CC(C)C)OC(=O)CCNC2=O)cc1	> 10	> 10	> 10	> 10	> 10	
COc1ccc(C[C@H]2NC(=O)/C=C/C[C@@H](C(/C=C/c3ccccc3)OC(C)=O)OC(=O)[C@H](CC(C)C)OC(=O)[C@H](C)CNC2=O)cc1 (stereo partly specified)	> 10	> 10	> 10	> 10	> 10	
COc1ccc(C[C@H]2NC(=O)/C=C/C[C@@H](C(=O)CCc3ccccc3)OC(=O)[C@H](CC(C)C)OC(=O)CCNC2=O)cc1	> 10	> 10	> 10	> 10	> 10	

SMILES	IC50 (KB [1]) [nM]	IC50 (HT-29) [nM]	IC50 (KB [2]) [nM]	IC50 (DA-3 cell line) [nM]	IC50 (B16-F10) [nM]	IC50 (KB [3]) [ng/mL]
COc1ccc(C[C@H]2NC(=O)/C=C/C[C@@H](C(Br)C#Cc3ccccc3)OC(=O)[C@H](CC(C)C)OC(=O)[C@H](C)CNC2=O)cc1 (stereo partly specified)	> 10	> 10	> 10	> 10	> 10	
COc1ccc(C[C@H]2NC(=O)/C=C/C[C@@H](C/C=C/c3ccccc3)OC(=O)[C@H](CC(C)C)OC(=O)[C@H](C)CNC2=O)cc1	> 10	> 10	> 10	> 10	> 10	
COc1ccc(C[C@H]2NC(=O)/C=C/C[C@@H](C(=O)/C=C/c3ccccc3)OC(=O)[C@H](CC(C)C)OC(=O)[C@H](C)CNC2=O)cc1Cl	> 10	> 10	> 10	> 10	> 10	
COc1ccc(C[C@H]2NC(=O)/C=C/C[C@@H](C(=O)C#Cc3ccccc3)OC(=O)[C@H](CC(C)C)OC(=O)[C@H](C)CNC2=O)cc1	> 10	> 10	> 10	> 10	> 10	
COc1ccc(C[C@H]2NC(=O)/C=C/C[C@@H](C(O)/C=C/c3ccccc3)OC(=O)[C@H](CC(C)C)OC(=O)CCNC2=O)cc1 (stereo partly specified)	> 10	> 10	> 10	> 10	> 10	
COc1ccc(C[C@H]2NC(=O)/C=C/C[C@@H](C(=O)/C=C/c3ccccc3)OC(=O)[C@H](CC(C)C)OC(=O)[C@H](C)CNC2=O)cc1	> 10	> 10	> 10	> 10	> 10	
COc1ccc(C[C@H]2NC(=O)/C=C/C[C@@H]([C@](C)(O)C#Cc3ccccc3)OC(=O)[C@H](CC(C)C)OC(=O)CCNC2=O)cc1	> 10	> 10	> 10	> 10	> 10	
COc1ccc(C[C@H]2NC(=O)/C=C/C[C@@H](C(=O)/C=C\c3ccccc3)OC(=O)[C@H](CC(C)C)OC(=O)CCNC2=O)cc1	> 10	> 10	> 10	> 10	> 10	
COc1ccc(C[C@H]2NC(=O)/C=C/C[C@@H](C(=O)C#Cc3ccccc3)OC(=O)[C@H](CC(C)C)OC(=O)CCNC2=O)cc1	> 10	> 10	> 10	> 10	> 10	
COc1ccc(C[C@H]2NC(=O)/C=C/C[C@@H](C(=O)/C=C/c3ccccc3)OC(=O)[C@H](CC(C)C)OC(=O)CCNC2=O)cc1	> 10	> 10	> 10	> 10	> 10	
COc1ccc(C[C@H]2NC(=O)/C=C/C[C@@H](C(C#Cc3ccccc3)OS(C)(=O)=O)OC(=O)[C@H](CC(C)C)OC(=O)[C@@H](C)CNC2=O)cc1 (stereo partly specified)	> 10	> 10	> 10	> 10	> 10	
COc1ccc(C[C@H]2NC(=O)/C=C/C[C@@H]([C@](C)(O)/C=C\c3ccccc3)OC(=O)[C@H](CC(C)C)OC(=O)CCNC2=O)cc1	> 10	> 10	> 10	> 10	> 10	
COc1ccc(C[C@H]2NC(=O)/C=C/C[C@@H](C(=O)[C@H]3O[C@@H]3c3ccccc3)OC(=O)[C@H](CC(C)C)OC(=O)[C@H](C)CNC2=O)cc1	> 10	> 10	> 10	> 10	> 10	
COc1ccc(C[C@H]2NC(=O)/C=C/C[C@@H](C[C@H]3O[C@@H]3c3ccccc3)OC(=O)[C@H](CC(C)C)OC(=O)[C@H](C)CNC2=O)cc1	> 10	4	6	3	> 10	
COc1ccc(C[C@H]2NC(=O)/C=C/C[C@@H]([C@@H](C)[C@H]3O[C@@H]3c3ccccc3)OC(=O)[C@H](CC(C)C)OC(=O)[C@H](C)CNC2=O)cc1	> 10	3	> 10	> 10	> 4	
COc1ccc(C[C@H]2NC(=O)/C=C/C[C@@H](C(C#Cc3ccccc3)OS(C)(=O)=O)OC(=O)[C@H](CC(C)C)OC(=O)[C@H](C)CNC2=O)cc1 (stereo partly specified)	> 10	> 10	> 10	> 10	> 10	
COc1ccc(C[C@H]2NC(=O)/C=C/C[C@@H](C(O)CCc3ccccc3)OC(=O)[C@H](CC(C)C)OC(=O)CCNC2=O)cc1 (stereo partly specified)	> 10	> 10	> 10	> 10	> 10	
COc1ccc(C[C@H]2NC(=O)/C=C/C[C@@H]([C@H](C)/C=C/c3ccccc3)OC(=O)[C@H](CC(C)C)OC(=O)[C@H](C)CNC2=O)cc1Cl [CRYPTOPHYCIN 3]	5	1	2	1	2	3 (≈ 4.69 nM)
